SMILES strings stand for the structures. Structures can show the parent of a compound that is named as a salt.

A word on the IC50: it is the concentration that gives 50% inhibition. As a reminder, the Kd is the equilibrium constant for the complex coming apart. For orientation: EC50 means the concentration at which the effect is half-maximal.

For experiment [1], the system named is MEK1 phosphorylation in the A375 human melanoma cell line. As to the kind of experiment: cells. Conditions: A-375, read-out: pMEK IC50.
The target in experiment [2] is RAF kinases (Homo sapiens, UniProt P15056). The experiment in a line: biochemical.
Experiment [3] deals with RAF kinases (Homo sapiens, UniProt P04049). The experiment in a line: biochemical.
Another experiment has as its system A375 cells. The experiment in a line: cells. The note with it: Homo sapiens, A-375, read-out: A375 Viability EC50.

Chain of RAF kinases (Homo sapiens, UniProt P04049) (P04049 whole entry): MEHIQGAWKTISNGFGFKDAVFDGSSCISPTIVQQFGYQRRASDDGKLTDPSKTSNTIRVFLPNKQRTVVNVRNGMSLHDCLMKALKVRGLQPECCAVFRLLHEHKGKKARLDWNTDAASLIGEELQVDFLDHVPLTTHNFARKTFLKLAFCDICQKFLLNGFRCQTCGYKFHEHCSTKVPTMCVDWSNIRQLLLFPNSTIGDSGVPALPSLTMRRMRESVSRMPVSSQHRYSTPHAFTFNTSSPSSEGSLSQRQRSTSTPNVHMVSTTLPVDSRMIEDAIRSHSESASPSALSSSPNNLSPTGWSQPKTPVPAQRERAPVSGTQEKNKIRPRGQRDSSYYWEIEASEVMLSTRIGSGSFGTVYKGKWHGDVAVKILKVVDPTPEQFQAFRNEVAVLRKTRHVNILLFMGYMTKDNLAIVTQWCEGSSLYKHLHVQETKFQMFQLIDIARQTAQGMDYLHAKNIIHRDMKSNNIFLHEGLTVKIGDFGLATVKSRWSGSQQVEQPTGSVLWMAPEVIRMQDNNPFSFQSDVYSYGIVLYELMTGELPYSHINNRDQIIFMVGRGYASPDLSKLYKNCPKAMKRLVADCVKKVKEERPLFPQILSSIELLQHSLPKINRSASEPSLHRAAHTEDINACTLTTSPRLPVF
Chain of RAF kinases (Homo sapiens, UniProt P15056) (P15056 whole entry): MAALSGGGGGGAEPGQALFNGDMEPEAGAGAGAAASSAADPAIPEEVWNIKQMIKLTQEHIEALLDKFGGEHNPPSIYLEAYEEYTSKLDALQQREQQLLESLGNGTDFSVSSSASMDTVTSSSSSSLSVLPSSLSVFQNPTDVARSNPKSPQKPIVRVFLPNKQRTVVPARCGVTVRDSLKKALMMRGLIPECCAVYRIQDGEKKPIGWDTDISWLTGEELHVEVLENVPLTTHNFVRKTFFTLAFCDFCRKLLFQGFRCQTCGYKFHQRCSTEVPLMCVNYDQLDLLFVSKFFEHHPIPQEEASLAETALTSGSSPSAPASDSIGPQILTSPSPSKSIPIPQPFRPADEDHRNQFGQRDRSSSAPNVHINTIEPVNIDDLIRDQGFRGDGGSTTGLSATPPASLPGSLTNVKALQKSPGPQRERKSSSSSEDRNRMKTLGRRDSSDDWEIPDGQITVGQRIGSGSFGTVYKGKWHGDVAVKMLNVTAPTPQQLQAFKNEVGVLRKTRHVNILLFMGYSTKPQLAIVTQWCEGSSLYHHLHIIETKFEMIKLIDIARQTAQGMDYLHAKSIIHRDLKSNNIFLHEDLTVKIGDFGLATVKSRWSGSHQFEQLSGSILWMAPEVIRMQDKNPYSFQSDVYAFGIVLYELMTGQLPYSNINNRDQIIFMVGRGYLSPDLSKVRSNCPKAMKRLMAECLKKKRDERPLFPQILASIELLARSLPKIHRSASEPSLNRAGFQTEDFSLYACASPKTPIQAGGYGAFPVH

On to `COCCOc1cc2c(Oc3cccc(NC(=O)Nc4cc(C(C)(C)C)on4)c3)ncnc2cc1OC` [Ex 15, 1-(5-tert-butylisoxazol-3-yl)-3-{3-[7-methoxy-6-(2-methoxyethoxy)quinazolin-4-yloxy]phenyl}urea hydrochloride], for which, in experiment [1], the IC50 is less than 250 nM. In addition, the dissociation constant (Kd) at RAF kinases [2] and on RAF kinases [3] was 250 to 500 nM throughout. Moreover, in the experiment with A375 cells, the EC50 is less than 250 nM.
As for `COc1cc2c(Oc3cccc(NC(=O)Nc4cc(C(C)(C)C)on4)c3)ncnc2cc1OCCN1CCN(C)CC1` [Ex 36, 1-(5-tert-butylisoxazol-3-yl)-3-(3-(6-methoxy-7-(2-(4-methylpiperazin-1-yl)ethoxy)quinazolin-4-yloxy)phenyl)urea], the IC50 in experiment [1] is less than 250 nM. Moreover, the Kd on RAF kinases [2] and on RAF kinases [3] was 250 to 500 nM in each case. In addition, in the experiment on A375 cells, the half-maximal effective concentration (EC50) was 250 to 500 nM.
As for `COc1cc2ncnc(Oc3cccc(NC(=O)Nc4ccc(Cl)c(C(F)(F)F)c4)c3)c2cc1OC` [Ex 176, 1-(4-chloro-3-(trifluoromethyl)phenyl)-3-(3-(6,7-dimethoxyquinazolin-4-yloxy)phenyl)urea], the half-maximal inhibitory concentration (IC50) in experiment [1] is 250 to 500 nM. Moreover, the Kd on RAF kinases [2] was 500 to 1000 nM; at RAF kinases [3] it was 250 to 500 nM. Further, the EC50 with A375 cells is greater than 1000 nM.
Turning to `CCOc1cc2c(Sc3cccc(NC(=O)Nc4cc(C(C)(C)C)on4)c3)ncnc2cc1OC` [Ex 56, 1-(5-tert-butylisoxazol-3-yl)-3-(3-(6-ethoxy-7-methoxyquinazolin-4-ylthio)phenyl)urea], the IC50 in experiment [1] is less than 250 nM. For the same compound, the Kd was in the range of 500 to 1000 nM on RAF kinases [2] and 250 to 500 nM at RAF kinases [3]. Besides, the EC50 in the experiment on A375 cells is less than 250 nM.
Take `COc1cc2c(Sc3cccc(NC(=O)Nc4cc(C(C)(C)C)on4)c3)ncnc2cc1OCCCN1CCN(C)CC1` [Ex 73, 1-(5-tert-butylisoxazol-3-yl)-3-(3-(6-methoxy-7-(3-(4-methylpiperazin-1-yl)propoxy)quinazolin-4-ylthio)phenyl)urea]: the IC50 in experiment [1] was less than 250 nM. Moreover, the Kd on RAF kinases [2] and on RAF kinases [3] was 250 to 500 nM in each case. The EC50 in the experiment on A375 cells is 500 to 1000 nM.
For `COc1cc2c(Oc3cccc(NC(=O)Nc4cc(C(C)(C)C)on4)c3)ncnc2cc1OCCCN1CCC(O)C1` (centres unmarked) [Ex 31, 1-(5-tert-butyl-isoxazol-3-yl)-3-(3-{7-[3-(3-hydroxy-pyrrolidin-1-yl)-propoxy]-6-methoxy-quinazolin-4-yloxy}-phenyl)-urea], the IC50 in experiment [1] was less than 250 nM. Also, the Kd on RAF kinases [2] and at RAF kinases [3] was 250 to 500 nM each time. In addition, in the experiment on A375 cells, the EC50 is less than 250 nM.
Take `COc1cc2ncnc(Sc3cccc(NC(=O)Nc4cc(C(C)(C)C)on4)c3)c2cc1OCCCN1CCC(CO)CC1` [Ex 58, 1-(5-tert-butylisoxazol-3-yl)-3-(3-(6-(3-(4-(hydroxymethyl)piperidin-1-yl)propoxy)-7-methoxyquinazolin-4-ylthio)phenyl)urea]: the IC50 in experiment [1] is less than 250 nM. For the same compound, the Kd at RAF kinases [2] was 250 to 500 nM; at RAF kinases [3] it was 500 to 1000 nM. The EC50 with A375 cells is greater than 1000 nM.
For `COc1cc2ncnc(Oc3cccc(NC(=O)Nc4cc(C(C)(C)C)on4)c3)c2cc1OCCN1CCS(=O)(=O)CC1` [Ex 91, 1-(5-tert-butyl-isoxazol-3-yl)-3-(3-{6-[2-(1,1-dioxo-thiomorpholin-4-yl)-ethoxy]-7-methoxy-quinazolin-4-yloxy}-phenyl)-urea] the same measures were less than 250 nM, 250 to 500 nM, 250 to 500 nM and less than 250 nM.
On the same counts, the results for `COCCOc1cc2ncnc(Sc3cccc(NC(=O)Nc4cc(C(C)(C)C)on4)c3)c2cc1OC` [Ex 52, 1-(5-tert-butylisoxazol-3-yl)-3-{3-[6-methoxy-7-(2-methoxyethoxy)quinazolin-4-ylthio]phenyl}urea hydrochloride] are less than 250 nM, 250 to 500 nM, 250 to 500 nM and 500 to 1000 nM.
Take `COCCOc1cc2c(Sc3cccc(NC(=O)Nc4cc(C(C)(C)C)on4)c3)ncnc2cc1OC` [Ex 45, 1-(5-tert-butylisoxazol-3-yl)-3-(3-(7-methoxy-6-(2-methoxyethoxy)quinazolin-4-ylthio)phenyl)urea]: in experiment [1], the IC50 is less than 250 nM. Besides, the Kd on RAF kinases [2] was in the range of 500 to 1000 nM; on RAF kinases [3] it was 250 to 500 nM. Moreover, the EC50 in the experiment on A375 cells is 250 to 500 nM.
On to `COc1cc2ncnc(Oc3cccc(NC(=O)Nc4ccc(C(C)(C)C)cc4)c3)c2cc1OC` [Ex 173, 1-(4-tert-butylphenyl)-3-(3-(6,7-dimethoxyquinazolin-4-yloxy)phenyl)urea], for which the IC50 in experiment [1] lay within 250 to 500 nM. The Kd on RAF kinases [2] fell in the range of 500 to 1000 nM; on RAF kinases [3] it was 250 to 500 nM. In the experiment with A375 cells, the EC50 was greater than 1000 nM.
Regarding `COCCOc1cc2ncnc(Oc3cccc(NC(=O)Nc4cc(C(C)(C)C)no4)c3)c2cc1OC` [Ex 202, 1-(3-tert-butylisoxazol-5-yl)-3-(3-(6-methoxy-7-(2-methoxyethoxy)quinazolin-4-yloxy)phenyl)urea], the IC50 in experiment [1] is less than 250 nM. For the same compound, the Kd on RAF kinases [2] and on RAF kinases [3] was 250 to 500 nM each time. The EC50 with A375 cells was greater than 1000 nM.
For `COc1cc2c(Oc3cccc(NC(=O)Nc4cc(C(C)(C)C)on4)c3)ncnc2cc1OCCN1CCOCC1` [Ex 35, 1-(5-tert-butylisoxazol-3-yl)-3-(3-(6-methoxy-7-(2-morpholinoethoxy)quinazolin-4-yloxy)phenyl)urea], the IC50 in experiment [1] was less than 250 nM. The Kd at RAF kinases [2] and on RAF kinases [3] was 250 to 500 nM each time. The EC50 in the experiment with A375 cells was in the range of 500 to 1000 nM.
On to `COc1cc2ncnc(Sc3cccc(NC(=O)Nc4cc(C(C)(C)C)on4)c3)c2cc1OCCCN1CCCCC1` [Ex 57, 1-(5-tert-butylisoxazol-3-yl)-3-(3-(7-methoxy-6-(3-(piperidin-1-yl)propoxy)quinazolin-4-ylthio)phenyl) urea], for which the IC50 in experiment [1] is less than 250 nM. In addition, the Kd at RAF kinases [2] and at RAF kinases [3] was 500 to 1000 nM in each case. Moreover, in the experiment with A375 cells, the EC50 was greater than 1000 nM.
Consider `COCCOc1cc2ncnc(Oc3cccc(NC(=O)Nc4cc(C(C)(C)C)on4)c3)c2cc1OC` [Ex 7, 1-(5-tert-Butylisoxazol-3-yl)-3-{3-[6-methoxy-7-(2-methoxyethoxy)quinazolin-4-yloxy]phenyl}urea hydrochloride], for which the IC50 in experiment [1] is less than 250 nM. Also, the Kd at RAF kinases [2] and on RAF kinases [3] was 250 to 500 nM in each case. Moreover, the EC50 in the experiment on A375 cells fell in the range of 250 to 500 nM.
For `COc1cc2c(Sc3cccc(NC(=O)Nc4cc(C(C)(C)C)on4)c3)ncnc2cc1OCCN1CCCCC1` [Ex 80, 1-(5-tert-butylisoxazol-3-yl)-3-(3-(6-methoxy-7-(2-(piperidin-1-yl)ethoxy)quinazolin-4-ylthio)phenyl)urea], the IC50 in experiment [1] lay within 250 to 500 nM. The Kd on RAF kinases [2] and at RAF kinases [3] was 250 to 500 nM in each case. In addition, the EC50 in the experiment on A375 cells is greater than 1000 nM.
With `COc1cc2ncnc(Oc3cccc(NC(=O)Nc4cc(C(C)(C)C)on4)c3)c2cc1OCCN1CCOCC1` [Ex 20, 1-(5-tert-butylisoxazol-3-yl)-3-(3-(7-methoxy-6-(2-morpholinoethoxy)quinazolin-4-yloxy)phenyl)urea], in experiment [1], the IC50 is less than 250 nM. In addition, the Kd on RAF kinases [2] and on RAF kinases [3] was 250 to 500 nM in each case. In addition, in the experiment on A375 cells, the EC50 is less than 250 nM.
On to `COc1cc2ncnc(Oc3cccc(NC(=O)Nc4cc(C(C)(C)C)on4)c3)c2cc1OCCN1CCC(CO)CC1` [Ex 17, 1-(5-tert-butylisoxazol-3-yl)-3-(3-(6-(2-(4-(hydroxymethyl)piperidin-1-yl)ethoxy)-7-methoxyquinazolin-4-yloxy)phenyl)urea], for which, in experiment [1], the IC50 was 250 to 500 nM. The Kd at RAF kinases [2] and at RAF kinases [3] was 500 to 1000 nM throughout. In the experiment on A375 cells, the EC50 lay within 250 to 500 nM.
On to `COc1cc2ncnc(Oc3cccc(NC(=O)Nc4cc(C(C)(C)C)on4)c3)c2cc1OCCCN1CCN(C)CC1` [Ex 21, 1-(5-tert-butylisoxazol-3-yl)-3-(3-(7-methoxy-6-(3-(4-methylpiperazin-1-yl)propoxy)quinazolin-4-yloxy)phenyl)urea], for which the IC50 in experiment [1] is less than 250 nM. The Kd at RAF kinases [2] and at RAF kinases [3] was 250 to 500 nM each time. The EC50 with A375 cells was 250 to 500 nM.
Consider `COCCOc1ccc2c(Oc3cccc(NC(=O)Nc4cc(C(C)(C)C)on4)c3)ncnc2c1` [Ex 43, 1-(5-tert-butylisoxazol-3-yl)-3-(3-(7-(2-methoxyethoxy)quinazolin-4-yloxy)phenyl)urea], for which, in experiment [1], the IC50 is 250 to 500 nM. Moreover, the Kd lay in the range of 500 to 1000 nM on RAF kinases [2] and 250 to 500 nM at RAF kinases [3]. The EC50 with A375 cells is greater than 1000 nM.
Regarding `COc1cc2ncnc(Oc3cccc(NC(=O)Nc4cc(CN5CCOCC5)cc(C(F)(F)F)c4)c3)c2cc1OC` [Ex 151, 1-(3-(6,7-dimethoxyquinazolin-4-yloxy)phenyl)-3-(3-(morpholinomethyl)-5-(trifluoromethyl)phenyl)urea], the IC50 in experiment [1] was greater than 1000 nM. The Kd at RAF kinases [3] is 250 to 500 nM. In addition, in the experiment on A375 cells, the EC50 was greater than 1000 nM.
Consider `COc1cc2ncnc(Oc3cccc(NC(=O)Nc4cc(C(C)(C)C)on4)c3)c2cc1OC` [Ex 1, 1-(5-tert-butylisoxazol-3-yl)-3-(3-(6,7-dimethoxyquinazolin-4-yloxy)phenyl)urea], for which the IC50 in experiment [1] was less than 250 nM. On RAF kinases [3], this compound registered a Kd of 250 to 500 nM. Also, the EC50 in the experiment with A375 cells was 500 to 1000 nM.
For `COc1cc2ncnc(Sc3cccc(NC(=O)Nc4cc(C(C)(C)C)on4)c3)c2cc1OCCN1CCCCC1` [Ex 65, 1-(5-tert-butylisoxazol-3-yl)-3-(3-(7-methoxy-6-(2-(piperidin-1-yl)ethoxy)quinazolin-4-ylthio)phenyl)urea] the same measures were 250 to 500 nM, 500 to 1000 nM and greater than 1000 nM.
`COc1cc2ncnc(Sc3cccc(NC(=O)Nc4cc(C(C)(C)C#N)nn4-c4ccccc4)c3)c2cc1OC` [Ex 309, 1-(3-(2-cyanopropan-2-yl)-1-phenyl-1H-pyrazol-5-yl)-3-(3-(6,7-dimethoxyquinazolin-4-ylthio)phenyl)urea]: the concentration for half-maximal inhibition (IC50) in experiment [1] was less than 250 nM. Further, the Kd at RAF kinases [2] and at RAF kinases [3] was 500 to 1000 nM in each case.

The values above are taken from patent US8618289B2 (Ambit Biosciences Corporation, priority 2008, dated 2013).
